In patent publication US7528138B2, “Pyrazolo[1,5-a]pyrimidines useful as inhibitors of protein kinases” (Vertex Pharmaceuticals Incorporated, priority 2004, dated 2009):

Legend:
Type in all cases: biochemical
[1] = biological target: T1, JAK3 (Homo sapiens, UniProt P52333); test: JAK3 Inhibition Assay, 33P incorporation; details: enzyme inhibition data (Ki), Table 11
T1 sequence (P52333 1-1124): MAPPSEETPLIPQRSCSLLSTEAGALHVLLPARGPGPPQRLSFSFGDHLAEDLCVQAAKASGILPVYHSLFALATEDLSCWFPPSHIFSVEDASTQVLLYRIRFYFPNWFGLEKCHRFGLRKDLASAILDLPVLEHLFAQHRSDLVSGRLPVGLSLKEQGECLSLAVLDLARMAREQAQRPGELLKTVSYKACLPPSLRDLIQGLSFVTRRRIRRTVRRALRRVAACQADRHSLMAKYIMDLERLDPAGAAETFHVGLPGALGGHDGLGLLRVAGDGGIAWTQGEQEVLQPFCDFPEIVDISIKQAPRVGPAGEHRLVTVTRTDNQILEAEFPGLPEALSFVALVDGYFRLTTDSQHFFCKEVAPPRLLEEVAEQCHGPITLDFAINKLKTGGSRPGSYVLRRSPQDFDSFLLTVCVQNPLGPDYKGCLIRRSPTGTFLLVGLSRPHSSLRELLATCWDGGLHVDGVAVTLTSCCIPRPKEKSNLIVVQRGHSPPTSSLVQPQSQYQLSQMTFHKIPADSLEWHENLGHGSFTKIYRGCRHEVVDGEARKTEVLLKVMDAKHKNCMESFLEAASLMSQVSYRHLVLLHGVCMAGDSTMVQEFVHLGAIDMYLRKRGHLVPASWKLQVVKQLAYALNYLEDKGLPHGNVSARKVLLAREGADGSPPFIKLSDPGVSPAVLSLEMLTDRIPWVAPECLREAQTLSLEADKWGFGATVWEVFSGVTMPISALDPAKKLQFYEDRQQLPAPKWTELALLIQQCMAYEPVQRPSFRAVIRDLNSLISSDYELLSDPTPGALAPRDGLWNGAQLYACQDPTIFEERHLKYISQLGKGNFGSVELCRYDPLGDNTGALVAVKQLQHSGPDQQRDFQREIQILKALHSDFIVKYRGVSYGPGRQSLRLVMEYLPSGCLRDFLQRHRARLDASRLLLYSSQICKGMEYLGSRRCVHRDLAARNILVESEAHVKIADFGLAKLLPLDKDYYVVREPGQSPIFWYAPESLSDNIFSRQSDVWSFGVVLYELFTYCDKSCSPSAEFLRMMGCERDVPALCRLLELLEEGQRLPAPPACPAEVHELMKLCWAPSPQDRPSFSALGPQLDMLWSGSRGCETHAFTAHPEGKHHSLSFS
How it was run: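 33P incorporation into 1 μM poly(Glu)4Tyr was counted after TCA stop and glass fiber filtration. The 20 min reaction ran at 25 °C with 1 nM JAK3 and 5 μM ATP (200 uCi/μmole). Buffer was 100 mM HEPES pH 7.4, 10 mM MgCl2, 25 mM NaCl, 1 mM DTT, 0.01% BSA.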

[2] = biological target: c-Met (Homo sapiens, UniProt P08581); test: c-Met Inhibition Assay, coupled enzyme system; details: enzyme inhibition data (Ki), Table 11
c-Met, sequence (P08581 25-1390): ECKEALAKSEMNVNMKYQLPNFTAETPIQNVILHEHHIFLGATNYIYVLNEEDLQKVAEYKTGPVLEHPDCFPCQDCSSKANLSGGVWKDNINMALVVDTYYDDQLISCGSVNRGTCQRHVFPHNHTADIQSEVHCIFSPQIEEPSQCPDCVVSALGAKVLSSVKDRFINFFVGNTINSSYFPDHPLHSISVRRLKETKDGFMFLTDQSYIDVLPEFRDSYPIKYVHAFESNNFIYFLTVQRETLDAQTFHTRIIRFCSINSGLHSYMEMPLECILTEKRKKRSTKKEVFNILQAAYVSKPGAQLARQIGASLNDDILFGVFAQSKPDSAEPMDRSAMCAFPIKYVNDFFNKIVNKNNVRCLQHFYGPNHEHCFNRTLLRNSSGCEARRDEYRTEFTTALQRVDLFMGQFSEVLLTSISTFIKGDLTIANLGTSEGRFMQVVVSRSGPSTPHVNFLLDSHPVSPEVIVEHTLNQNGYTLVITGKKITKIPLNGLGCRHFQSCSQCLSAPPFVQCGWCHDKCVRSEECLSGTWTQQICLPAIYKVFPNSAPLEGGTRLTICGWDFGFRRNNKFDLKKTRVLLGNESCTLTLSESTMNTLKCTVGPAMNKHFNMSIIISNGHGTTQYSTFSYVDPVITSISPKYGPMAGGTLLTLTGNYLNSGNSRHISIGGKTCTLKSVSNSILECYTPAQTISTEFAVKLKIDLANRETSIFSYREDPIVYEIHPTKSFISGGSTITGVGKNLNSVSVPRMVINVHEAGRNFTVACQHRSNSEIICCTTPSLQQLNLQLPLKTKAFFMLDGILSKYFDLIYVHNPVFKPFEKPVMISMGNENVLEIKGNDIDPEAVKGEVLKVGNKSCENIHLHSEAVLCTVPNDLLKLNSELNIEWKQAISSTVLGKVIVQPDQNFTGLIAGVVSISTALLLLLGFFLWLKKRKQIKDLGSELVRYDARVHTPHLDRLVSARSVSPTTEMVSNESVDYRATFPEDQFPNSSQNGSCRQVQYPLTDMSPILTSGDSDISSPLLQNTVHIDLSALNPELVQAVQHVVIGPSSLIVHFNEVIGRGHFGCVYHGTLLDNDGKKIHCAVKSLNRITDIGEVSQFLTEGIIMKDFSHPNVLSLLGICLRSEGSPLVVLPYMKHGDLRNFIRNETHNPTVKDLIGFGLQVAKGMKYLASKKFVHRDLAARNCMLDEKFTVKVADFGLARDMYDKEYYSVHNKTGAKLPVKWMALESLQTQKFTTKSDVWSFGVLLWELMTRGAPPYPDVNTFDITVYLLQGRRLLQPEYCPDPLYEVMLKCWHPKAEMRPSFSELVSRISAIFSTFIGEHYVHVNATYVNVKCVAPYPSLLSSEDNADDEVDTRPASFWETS
How it was run: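 Pyruvate kinase/lactate dehydrogenase-coupled NADH assay in HEPES pH 7.5 with 80 nM c-Met, 200 μM ATP and 10 μM polyGluTyr at 30° C. Compound (0.006–12.5 μM final, 12-point) preincubated 10 min before ATP start; rates over 10 min gave Ki.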

[3] = biological target: T2, Itk (Homo sapiens, UniProt Q08881); test: ITK Inhibition Assay (Radiometric), radioactive-phosphate incorporation; details: enzyme inhibition data (Ki), Table 11; radiometric or UV assay not stated
T2 sequence (Q08881 1-620): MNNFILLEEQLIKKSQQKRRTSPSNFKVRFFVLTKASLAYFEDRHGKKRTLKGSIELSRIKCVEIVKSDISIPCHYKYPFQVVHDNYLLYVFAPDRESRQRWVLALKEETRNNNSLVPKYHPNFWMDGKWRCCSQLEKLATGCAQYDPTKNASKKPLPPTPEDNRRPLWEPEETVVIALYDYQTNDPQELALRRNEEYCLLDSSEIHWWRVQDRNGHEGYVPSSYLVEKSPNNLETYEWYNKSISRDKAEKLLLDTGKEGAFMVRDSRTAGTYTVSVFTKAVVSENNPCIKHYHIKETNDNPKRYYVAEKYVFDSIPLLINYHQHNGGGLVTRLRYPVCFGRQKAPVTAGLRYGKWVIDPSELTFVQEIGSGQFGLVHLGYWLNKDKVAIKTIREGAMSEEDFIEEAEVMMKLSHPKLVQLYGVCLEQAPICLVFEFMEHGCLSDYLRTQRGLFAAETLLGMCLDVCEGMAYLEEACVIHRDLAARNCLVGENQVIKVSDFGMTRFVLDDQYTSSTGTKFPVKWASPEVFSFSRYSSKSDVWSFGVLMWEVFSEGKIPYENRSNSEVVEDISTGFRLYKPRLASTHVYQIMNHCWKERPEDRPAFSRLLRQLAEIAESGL
How it was run: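 Radiometric 33P incorporation into SAM68 peptide (D332-443) with filter capture and scintillation counting; 10 min pre-incubation then 10 min reaction at 25° C. IC50 format: 30 nM Itk, 15 μM ATP, 2 μM peptide, HEPES pH 7.5. Ki(app) format: 50 nM Itk, 7.5 μM ATP, 3 μM peptide, MOPS pH 7.0.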

SMILES | Ki [1] [µM] | Ki [2] [µM] | Ki [3] [µM]
Nc1nn2cc(-c3ccncn3)cnc2c1C(=O)N(CCO)Cc1ccccc1 [Compound V-37] | > 5 | 0.5 to 5 | 0.5 to 5
CN(CCC#N)C(=O)c1c(N)nn2cc(-c3ccncn3)cnc12 [Compound V-40] | > 5 | 0.5 to 5 | 0.5 to 5
Nc1nn2cc(CCCNCC3CCCO3)cnc2c1-c1ccccn1 (stereo not drawn) [Compound V-329] | > 5 | < 0.5 | 0.5 to 5
Cc1cnc2c(-c3cc(N4CCCC(C)C4)ncn3)c(N)nn2c1 (stereo not drawn) [Compound V-339] | < 0.5 | < 0.5 | < 0.5
CN(CC1OCCO1)C(=O)c1cccc(-c2cnc3c(-c4ccccn4)c(N)nn3c2)n1 [Compound V-142] | 0.5 to 5 | < 0.5 | 0.5 to 5
Nc1nn2cc(-c3cccc(C(=O)NCCF)n3)cnc2c1-c1ccccn1 [Compound V-107] | 0.5 to 5 | < 0.5 | 0.5 to 5
CC(C)N(CCCc1cnc2c(-c3ccccn3)c(N)nn2c1)C(C)C [Compound V-320] | > 5 | 0.5 to 5 | 0.5 to 5
CN1CCN(c2ccc(-c3cnc4c(-c5ccccn5)c(N)nn4c3)cn2)CC1 [Compound V-145] | > 5 | < 0.5 | < 0.5
CN(CCc1ccccn1)C(=O)c1ccc(-c2cnc3c(-c4ccccn4)c(N)nn3c2)nc1 [Compound V-60] | 0.5 to 5 | < 0.5 | 0.5 to 5
Nc1nn2cc(-c3ccccn3)cnc2c1C(=O)NCc1ccc(Cl)c(Cl)c1 [Compound V-47] | > 5 | 0.5 to 5 | 0.5 to 5
Nc1nn2cc(-c3ccc(NCCCC4=NCC=N4)nc3)cnc2c1-c1ccccn1 [Compound V-161] | > 5 | < 0.5 | 0.5 to 5
N#Cc1ccccc1-c1cnc2c(-c3ccccn3)c(N)nn2c1 [Compound V-10] | > 5 | 0.5 to 5 | 0.5 to 5
Nc1nn2cc(-c3ccncc3)cnc2c1-c1cccc(NCCC2=CCCCC2)n1 [Compound V-138] | > 5 | 0.5 to 5 | 0.5 to 5
CC(C)CNC(=O)c1cnc2c(-c3ccccn3)c(N)nn2c1 [Compound V-205] | > 5 | 0.5 to 5 | 0.5 to 5
Nc1nn2cc(CCCN3CCNCC3)cnc2c1-c1ccccn1 [Compound V-314] | > 5 | 0.5 to 5 | 0.5 to 5
Nc1nn2cc(-c3ccc(N4CCSCC4)nc3)cnc2c1-c1ccccn1 [Compound V-170] | > 5 | 0.5 to 5 | 0.5 to 5
Nc1nn2cc(CCCNC3CCCCC3)cnc2c1-c1ccccn1 [Compound V-323] | > 5 | 0.5 to 5 | 0.5 to 5
Nc1nn2cc(-c3ccc(N4CCOCC4)nc3)cnc2c1-c1ccccn1 [Compound V-144] | > 5 | < 0.5 | 0.5 to 5
Nc1nn2cc(/C=C/c3ccccc3)cnc2c1-c1ccccn1 [Compound V-209] | > 5 | 0.5 to 5 | < 0.5
N#Cc1cccc(-c2cnc3c(-c4ccccn4)c(N)nn3c2)c1 [Compound V-197] | > 5 | < 0.5 | < 0.5
Nc1nn2cc(C(=O)NCc3ccccc3)cnc2c1-c1ccccn1 [Compound V-207] | > 5 | 0.5 to 5 | 0.5 to 5

SMILES | Ki [1] [µM] | Ki [2] [µM] | Ki [3] [µM]
Cc1cnc2c(-c3cc(N[C@H](C)C4CCCCC4)ncn3)c(N)nn2c1 [Compound V-297] | 0.5 to 5 | < 0.5 | 0.5 to 5
Cc1cnc2c(-c3cc(N4CCC[C@H]4CN4CCCC4)ncn3)c(N)nn2c1 [Compound V-305] | > 5 | 0.5 to 5 | 0.5 to 5
Nc1nn2cc(-c3cccc(C(=O)N4CCC(CCO)CC4)n3)cnc2c1-c1ccccn1 [Compound V-141] | > 5 | < 0.5 | 0.5 to 5
Nc1nn2cc(-c3ccccc3O)cnc2c1-c1ccccn1 [Compound V-8] | > 5 | 0.5 to 5 | 0.5 to 5
Nc1nn2cc(N3CCCCC3)cnc2c1-c1ccccn1 [Compound V-59] | > 5 | 0.5 to 5 | 0.5 to 5
Nc1nn2cc(-c3ccc(C(=O)N4CCC(N)CC4)cn3)cnc2c1-c1ccccn1 [Compound V-69] | 0.5 to 5 | < 0.5 | < 0.5
Nc1nn2cc(-c3ccnc(NCCCC4=NCC=N4)c3)cnc2c1-c1ccccn1 [Compound V-250] | 0.5 to 5 | < 0.5 | < 0.5
CCN(CCO)C(=O)c1cccc(-c2cnc3c(-c4ccccn4)c(N)nn3c2)n1 [Compound V-128] | > 5 | < 0.5 | 0.5 to 5
Nc1nn2cc(-c3ccccc3C(F)(F)F)cnc2c1-c1ccccn1 [Compound V-5] | > 5 | 0.5 to 5 | 0.5 to 5
Nc1nn2cc(CCc3ccccc3)cnc2c1-c1ccccn1 [Compound V-213] | > 5 | 0.5 to 5 | 0.5 to 5
Nc1nn2cc(-c3cccnc3N3CCC(N4CCCC4)CC3)cnc2c1-c1ccccn1 [Compound V-265] | > 5 | 0.5 to 5 | 0.5 to 5
Nc1nn2cc(N3CCCC3)cnc2c1-c1ccccn1 [Compound V-58] | > 5 | < 0.5 | 0.5 to 5
Cc1cnc2c(-c3cc(N4CCCC(CO)C4)ncn3)c(N)nn2c1 (stereo not drawn) [Compound V-340] | 0.5 to 5 | < 0.5 | 0.5 to 5
Nc1nn2cc(C(=O)NCc3cccnc3)cnc2c1-c1ccccn1 [Compound V-200] | > 5 | 0.5 to 5 | 0.5 to 5
Nc1nn2cc(-c3ccc(N4CCN(Cc5ccncc5)CC4)nc3)cnc2c1-c1ccccn1 [Compound V-163] | > 5 | < 0.5 | 0.5 to 5
Nc1nn2cc(CCCNC3CCC3)cnc2c1-c1ccccn1 [Compound V-324] | > 5 | < 0.5 | 0.5 to 5
Nc1nn2cc(-c3ccc(N4CCCCC4)nc3)cnc2c1-c1ccccn1 [Compound V-147] | > 5 | 0.5 to 5 | 0.5 to 5
COC(=O)/C=C/c1ccccc1-c1cnc2c(-c3ccccn3)c(N)nn2c1 [Compound V-17] | > 5 | 0.5 to 5 | 0.5 to 5
CN(C)CCN(Cc1ccccc1)C(=O)c1c(N)nn2cc(-c3ccncn3)cnc12 [Compound V-35] | > 5 | 0.5 to 5 | 0.5 to 5
CCN(C)CCCc1cnc2c(-c3ccccn3)c(N)nn2c1 [Compound V-318] | > 5 | 0.5 to 5 | 0.5 to 5
